Experimental data from PubChem BioAssay AID652059 (Broad Institute, 2013).

Tested on: D54 ERlucT glioma cells, NLG luciferase reporter, 24 h
Assay: blockers of NLG in glioma reporter line – cell-based, D54 ERlucT glioma, luciferase, dry powder, set 5, dose response (AID 652059)

CC(=O)N[C@H]1[C@@H](O[C@@H]2OC(C[C@@H](O)C3O[C@@H](n4ccc(=O)[nH]c4=O)[C@H](O)[C@@H]3O)[C@H](O)[C@H](O)[C@H]2NC(=O)/C=C/CCCCCCCCCCC(C)C)O[C@H](CO)[C@@H](O)[C@@H]1O (stereo partly specified)
AC40: 0.52 µM
